The values below come from patent US12060347B2 (BRISTOL-MYERS SQUIBB COMPANY, priority 2016, dated 2024).

This assay concerns the target T1, human PAR4 (Homo sapiens, UniProt Q96RI0).
T1 construct: expressed in transfected cells; host or cells: HEK293 PAR4 Clone 1.2A (BMS Arctic ID 383940)
T1 sequence (Q96RI0 18-385): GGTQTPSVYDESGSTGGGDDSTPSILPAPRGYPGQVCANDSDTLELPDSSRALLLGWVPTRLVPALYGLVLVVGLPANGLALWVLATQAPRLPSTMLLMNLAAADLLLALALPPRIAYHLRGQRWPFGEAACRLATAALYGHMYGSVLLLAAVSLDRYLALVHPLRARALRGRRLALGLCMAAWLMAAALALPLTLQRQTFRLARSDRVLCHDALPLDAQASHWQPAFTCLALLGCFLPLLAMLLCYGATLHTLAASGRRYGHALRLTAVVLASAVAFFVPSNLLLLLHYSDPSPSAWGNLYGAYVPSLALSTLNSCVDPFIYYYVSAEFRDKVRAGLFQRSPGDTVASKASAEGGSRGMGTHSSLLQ
Put plainly: PAR4 FLIPR assay: antagonism of agonist-peptide-induced calcium mobilization in PAR4-expressing HEK293 cells. Format: cell-based. The settings on record: H-Ala-Phe(4-F)-[…]NH2-induced intracellular calcium mobilization, 11-point curves. Background: Calcium assays in cells follow changes in intracellular calcium, usually with a dye or a luminescent sensor.
The IC50 is the concentration needed to halve the response being measured. Consider `COc1cnc2c(-c3nc4c(C)cc(OCCOC(=O)Nc5ccccc5)cc4s3)cc(C)cc2n1` [Example 110, 2-(2-(2-methoxy-7-methylquinoxalin-5-yl)-4-methylbenzo[d]thiazol-6-yloxy)ethyl phenylcarbamate], for which the IC50 came out at 12 nM.

Turning to `COc1cnc2c(-c3nc4c(C)cc(OCCOC(=O)Nc5cccnc5)cc4s3)cc(C)cc2n1` [Example 111, 2-(2-(2-methoxy-7-methylquinoxalin-5-yl)-4-methylbenzo[d]thiazol-6-yloxy)ethyl pyridin-3-ylcarbamate], the IC50 was determined as 1.1 nM.

As for `COc1ccc(NC(=O)OCCOc2cc(C)c3nc(-c4cc(C)cc5nc(OC)cnc45)sc3c2)cn1` [Example 112, 2-(2-(2-methoxy-7-methylquinoxalin-5-yl)-4-methylbenzo[d]thiazol-6-yloxy)ethyl 6-methoxypyridin-3-ylcarbamate], the IC50 was found to be 2 nM.

For the molecule `COc1cnc2c(-c3nc4c(C)cc(OCCOC(=O)Nc5ccncc5)cc4s3)cc(C)cc2n1` [Example 113, 2-(2-(2-methoxy-7-methylquinoxalin-5-yl)-4-methylbenzo[d]thiazol-6-yloxy)ethyl pyridin-4-ylcarbamate], the IC50 amounted to 3 nM.

For `Cc1cc(-c2nc3c(C)cc(OCCNS(=O)(=O)c4ccc(F)cc4)cc3s2)c2ncc(COC(F)F)nc2c1` [Example 114, N-(2-(2-(2-((difluoromethoxy)methyl)-7-methylquinoxalin-5-yl)-4-methylbenzo[d]thiazol-6-yloxy)ethyl)-4-fluorobenzenesulfonamide], the IC50 worked out at 1600 nM.

On to `COc1ccc(NC(=O)OCCOc2ccc3nc(-c4cc(C)cc5nc(OC)cnc45)sc3c2)cn1` [Example 115, 2-(2-(2-methoxy-7-methylquinoxalin-5-yl)benzo[d]thiazol-6-yloxy)ethyl 6-methoxypyridin-3-ylcarbamate], for which the IC50 stood at 1.3 nM.

On to `COc1cnc2c(-c3nc4c(C)cc(OCCOC(=O)Nc5cncc(C#N)c5)cc4s3)cc(C)cc2n1` [Example 116, 2-(2-(2-methoxy-7-methylquinoxalin-5-yl)-4-methylbenzo[d]thiazol-6-yloxy)ethyl 5-cyanopyridin-3-ylcarbamate], for which the IC50 is 1.4 nM.

As to `COc1cnc2c(-c3nc4c(C)cc(OCCOC(=O)Nc5ccc(C#N)nc5)cc4s3)cc(C)cc2n1` [Example 117, 2-((2-(2-methoxy-7-methylquinoxalin-5-yl)-4-methylbenzo[d]thiazol-6-yl)oxy)ethyl (6-cyanopyridin-3-yl)carbamate], the IC50 was 0.5 nM.

On to `COc1cnc2c(-c3nc4ccc(OCCOC(=O)Nc5cccc(C#N)c5)cc4s3)cc(C)cc2n1` [Example 118, 2-((2-(2-methoxy-7-methylquinoxalin-5-yl)benzo[d]thiazol-6-yl)oxy)ethyl (3-cyanophenyl)carbamate], for which the IC50 worked out at 2.2 nM.

Turning to `COc1cnc2c(-c3nc4c(C)cc(OCCOC(=O)Nc5cnc(Cl)nc5)cc4s3)cc(C)cc2n1` [Example 119, 2-((2-(2-methoxy-7-methylquinoxalin-5-yl)-4-methylbenzo[d]thiazol-6-yl)oxy)ethyl (2-chloropyrimidin-5-yl)carbamate], the IC50 stood at 16 nM.

As for `COc1cnc2c(-c3cc4cc(OC)c(F)cc4o3)cc(C)cc2n1` [Example 120, 5-(6-fluoro-5-methoxybenzofuran-2-yl)-2-methoxy-7-methylquinoxaline], the IC50 is 28 nM.

Turning to `COCc1cnc2c(-c3cc4cc(OC)c(F)c(Cl)c4o3)cc(C)cc2n1` [Example 121, 5-(7-chloro-6-fluoro-5-methoxybenzofuran-2-yl)-2-(methoxymethyl)-7-methylquinoxaline], the IC50 amounted to 0.7 nM.

Turning to `COc1cnc2c(-c3cc4cc(OC)c(F)c(Cl)c4o3)cc(C)cc2n1` [Example 122, 5-(7-chloro-6-fluoro-5-methoxybenzofuran-2-yl)-2-methoxy-7-methylquinoxaline], the IC50 was 3.9 nM.

Turning to `COc1cnc2c(-c3cc4cc(OCCOC(=O)Nc5ccnc(C)c5)c(F)cc4o3)cc(C)cc2n1` [Example 123, 2-((6-fluoro-2-(2-methoxy-7-methylquinoxalin-5-yl)benzofuran-5-yl)oxy)ethyl (2-methylpyridin-4-yl)carbamate], the IC50 was 1.5 nM.

Regarding `COc1cnc2c(-c3cc4cc(OC)c(F)c(Cl)c4o3)cc(CO)cc2n1` [Example 124, (8-(7-chloro-6-fluoro-5-methoxybenzofuran-2-yl)-3-methoxyquinoxalin-6-yl)methanol], the IC50 is 1.8 nM.

`COc1cnc2c(-c3cc4cc(OC)c(F)cc4o3)cc(CO)cc2n1` [Example 125, (8-(6-fluoro-5-methoxybenzofuran-2-yl)-3-methoxyquinoxalin-6-yl)methanol]: the IC50 worked out at 2 nM.

Consider `COc1cnc2c(-c3cc4cc(OCCOC(=O)Nc5ccnc(C)c5)c(F)cc4o3)cc(CO)cc2n1` [Example 126, 2-((6-fluoro-2-(7-(hydroxymethyl)-2-methoxyquinoxalin-5-yl)benzofuran-5-yl)oxy)ethyl (2-methylpyridin-4-yl)carbamate], for which the IC50 was 1.2 nM.

On to `COc1ccc2nc(-c3cc(CO)cc4nc(OC)cnc34)sc2c1` [Example 127], for which the IC50 amounted to 8.3 nM.

As to `COc1cnc2c(-c3nc4c(C)cc(OCCOC(=O)Nc5ccc(C)nc5)cc4s3)cc(CO)cc2n1` [Example 128, 2-(2-(7-(hydroxymethyl)-2-methoxyquinoxalin-5-yl)-4-methylbenzo[d]thiazol-6-yloxy)ethyl 6-methylpyridin-3-ylcarbamate], the IC50 came to 2.2 nM.

With `COc1cnc2c(-c3nc4c(C)cc(OCCOC(=O)Nc5ccnc(C)c5)cc4s3)cc(CO)cc2n1` [Example 129, 2-(2-(7-(hydroxymethyl)-2-methoxyquinoxalin-5-yl)-4-methylbenzo[d]thiazol-6-yloxy)ethyl 2-methylpyridin-4-ylcarbamate], the IC50 amounted to 3.2 nM.

For the molecule `COc1ccc2c(-c3cc4ccccc4o3)nc(C)cc2n1` [Example 130, 5-(benzofuran-2-yl)-2-methoxy-7-methyl-1,6-naphthyridine], the IC50 worked out at 460 nM.

`C=Cc1cnc2c(-c3cc4ccccc4o3)cc(C)cc2n1` [Example 131, 5-(benzofuran-2-yl)-7-methyl-2-vinylquinoxaline]: the IC50 was found to be 890 nM.

For the molecule `CCc1cnc2c(-c3cc4ccccc4o3)cc(C)cc2n1` [Example 132, 5-(benzofuran-2-yl)-2-ethyl-7-methylquinoxaline], the IC50 was 59 nM.

`Cc1ccc(-c2cc3ccccc3o2)c2ncc(OC(F)F)nc12` [Example 133, 5-(benzofuran-2-yl)-2-(difluoromethoxy)-8-methylquinoxaline]: the IC50 turned out to be 570 nM.

Consider `COc1cnc2c(-c3cc4ccccc4o3)nc(C)cc2c1` [Example 134, 8-(benzofuran-2-yl)-3-methoxy-6-methyl-1,7-naphthyridine\], for which the IC50 stood at 120 nM.

For the molecule `Cc1cc(-c2cc3ccccc3o2)c2ncc(-c3ccoc3)nc2c1` [Example 135, 5-(benzofuran-2-yl)-2-(furan-3-yl)-7-methylquinoxaline], the IC50 is 2200 nM.

For the molecule `Cc1cc(-c2nc3c(s2)CCC3)c2ncc(OC(F)F)nc2c1` [Example 136, 2-(2-(difluoromethoxy)-7-methylquinoxalin-5-yl)-5,6-dihydro-4H-cyclopenta[d]thiazole], the IC50 stood at 29 nM.

With `COc1cnc2c(-c3nc4c(s3)CCCCC4)cc(C)cc2n1` [Example 137, 2-(2-methoxy-7-methylquinoxalin-5-yl)-5,6,7,8-tetrahydro-4H-cyclohepta[d]thiazole], the IC50 came out at 29 nM.

Turning to `COc1cnc2c(-c3nc4c(s3)C(O)CCC4)cc(C)cc2n1` (stereo not drawn) [Example 138, 2-(2-methoxy-7-methylquinoxalin-5-yl)-4,5,6,7-tetrahydrobenzo[d]thiazol-7-ol], the IC50 was 33 nM.

As for `COc1cnc2c(-c3nc4c(s3)C(OC)CCC4)cc(C)cc2n1` (stereo not drawn) [Example 139, 7-methoxy-2-(2-methoxy-7-methylquinoxalin-5-yl)-4,5,6,7-tetrahydrobenzo[d]thiazole], the IC50 stood at 3.9 nM.

Take `COc1cnc2c(-c3nc4c(s3)CC(OC)CC4)cc(C)cc2n1` (stereo not drawn) [Example 140, 6-methoxy-2-(2-methoxy-7-methylquinoxalin-5-yl)-4,5,6,7-tetrahydrobenzo[d]thiazole]: the IC50 is 21 nM.

With `COc1cnc2c(-c3nc4c(s3)CC(C)(C)CC4)cc(C)cc2n1` [Example 141, 2-(2-methoxy-7-methylquinoxalin-5-yl)-6,6-dimethyl-4,5,6,7-tetrahydrobenzo[d]thiazole], the IC50 was 80 nM.

With `COc1cnc2c(-c3nc4c(s3)CC(CCO)C4)cc(C)cc2n1` (stereo not drawn) [Example 142, 2-(2-(2-methoxy-7-methylquinoxalin-5-yl)-5,6-dihydro-4H-cyclopenta[d]thiazol-5-yl) ethanol], the IC50 is 5.6 nM.

With `COCc1cnc2c(-c3nc4c(s3)C(O)CCC4)cc(C)cc2n1` (stereo not drawn) [Example 143, 2-(2-(methoxymethyl)-7-methylquinoxalin-5-yl)-4,5,6,7-tetrahydrobenzo[d]thiazol-7-ol], the IC50 came out at 36 nM.

Consider `COCc1cnc2c(-c3nc4c(s3)CCCC4)cc(C)cc2n1` [Example 144, 2-(2-(methoxymethyl)-7-methylquinoxalin-5-yl)-4,5,6,7-tetrahydrobenzo[d]thiazole], for which the IC50 is 0.3 nM.

For the molecule `COCc1cnc2c(-c3nc4c(s3)C(O)C(C)(C)CC4)cc(C)cc2n1` (stereo not drawn) [Example 145, 2-(2-(methoxymethyl)-7-methylquinoxalin-5-yl)-6,6-dimethyl-4,5,6,7-tetrahydrobenzo[d] thiazol-7-ol], the IC50 was 4.5 nM.
